Measured values reported in ChEMBL document CHEMBL1145277, “Discovery of 3,3-dimethyl-5-hydroxypipecolic hydroxamate-based inhibitors of aggrecanase and MMP-13” (Bioorg Med Chem Lett, 2005).

Key:
[1] = target: Disintegrin and metalloproteinase domain-containing protein 17 (Homo sapiens, UniProt P78536); assay: Inhibitory concentration against TNF-alpha converting enzyme
Interstitial collagenase = target: T1, Interstitial collagenase (Homo sapiens, UniProt P03956); assay: Inhibitory concentration against Matrix metalloprotease-1 (MMP-1)
T1 sequence (P03956 whole entry): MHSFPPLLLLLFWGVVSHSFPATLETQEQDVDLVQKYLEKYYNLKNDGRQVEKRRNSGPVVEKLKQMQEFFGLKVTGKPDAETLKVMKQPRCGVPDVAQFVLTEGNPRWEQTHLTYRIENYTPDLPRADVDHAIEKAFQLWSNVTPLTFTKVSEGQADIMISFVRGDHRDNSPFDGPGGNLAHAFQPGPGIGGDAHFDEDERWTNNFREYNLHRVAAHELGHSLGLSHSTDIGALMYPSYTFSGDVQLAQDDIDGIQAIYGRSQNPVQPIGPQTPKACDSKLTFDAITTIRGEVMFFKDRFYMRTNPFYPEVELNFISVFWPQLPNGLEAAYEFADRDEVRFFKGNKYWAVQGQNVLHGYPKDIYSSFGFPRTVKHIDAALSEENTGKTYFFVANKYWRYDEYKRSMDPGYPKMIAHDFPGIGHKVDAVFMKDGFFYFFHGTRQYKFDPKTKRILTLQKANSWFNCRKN

Cell line = assay: Inhibitory concentration against TNF-alpha release in LPS-stimulated human whole blood; type: functional, cell-based
[2] = Inhibitory concentration against Aggrecanase
Collagenase 3 = Collagenase 3 (Homo sapiens, UniProt P45452); assay: Inhibitory concentration against Matrix metalloprotease-13 (MMP-13)
[3] = Percent inhibition against Aggrecanase at 500 nM

Disintegrin and metalloproteinase domain-containing protein 17, sequence (P78536 whole entry, the tested form may be a part): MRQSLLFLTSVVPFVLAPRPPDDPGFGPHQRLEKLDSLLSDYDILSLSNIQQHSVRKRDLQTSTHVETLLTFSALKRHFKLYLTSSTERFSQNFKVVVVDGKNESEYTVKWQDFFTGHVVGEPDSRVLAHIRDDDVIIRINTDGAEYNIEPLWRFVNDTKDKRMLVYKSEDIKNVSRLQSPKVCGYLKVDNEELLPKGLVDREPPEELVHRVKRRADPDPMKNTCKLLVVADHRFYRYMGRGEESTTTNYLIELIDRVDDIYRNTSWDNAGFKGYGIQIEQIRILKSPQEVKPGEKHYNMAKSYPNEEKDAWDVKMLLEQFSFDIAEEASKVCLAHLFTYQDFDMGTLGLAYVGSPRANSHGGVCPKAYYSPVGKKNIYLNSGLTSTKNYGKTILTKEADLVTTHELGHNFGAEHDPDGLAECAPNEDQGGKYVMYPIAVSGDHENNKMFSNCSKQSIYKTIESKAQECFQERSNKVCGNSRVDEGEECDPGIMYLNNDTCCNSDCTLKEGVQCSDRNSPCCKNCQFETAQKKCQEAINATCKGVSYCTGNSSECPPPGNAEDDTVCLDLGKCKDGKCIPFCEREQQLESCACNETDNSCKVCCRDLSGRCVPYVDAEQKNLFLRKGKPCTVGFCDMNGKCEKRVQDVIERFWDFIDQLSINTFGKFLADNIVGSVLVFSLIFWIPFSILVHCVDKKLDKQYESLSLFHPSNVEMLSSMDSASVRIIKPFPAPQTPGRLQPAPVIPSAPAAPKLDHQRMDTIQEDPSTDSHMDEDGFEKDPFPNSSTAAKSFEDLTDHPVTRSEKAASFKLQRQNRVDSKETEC

Compound	IC50 [1]	IC50 (Interstitial collagenase)	IC50 (Cell line)	IC50 [2]	IC50 (Collagenase 3)	inhibition [3]
CC1(C)C[C@@H](O)CN(S(=O)(=O)c2ccc(OCc3ccccc3Br)cc2)[C@H]1C(=O)NO	11 nM	715 nM	8900 nM	16 nM	8 nM	–
CC(C)c1ccccc1COc1ccc(S(=O)(=O)N2C[C@H](O)CC(C)(C)[C@@H]2C(=O)NO)cc1	12 nM	2300 nM	1800 nM	–	188 nM	78%
Cc1c(F)cccc1COc1ccc(S(=O)(=O)N2C[C@H](O)CC(C)(C)[C@@H]2C(=O)NO)cc1	17 nM	679 nM	2880 nM	3.9 nM	4.3 nM	–
Cc1cccc(COc2ccc(S(=O)(=O)N3C[C@H](O)CC(C)(C)[C@@H]3C(=O)NO)cc2)c1	12 nM	773 nM	25800 nM	> 100 nM	2.8 nM	–
CC1(C)C[C@@H](O)CN(S(=O)(=O)c2ccc(OCc3cccc(Br)c3)cc2)[C@H]1C(=O)NO	15 nM	–	19000 nM	–	–	57%
Cc1ccc(F)cc1COc1ccc(S(=O)(=O)N2C[C@H](O)CC[C@@H]2C(=O)NO)cc1	6.2 nM	5100 nM	1400 nM	145 nM	2.1 nM	–
CC1(C)C[C@@H](O)CN(S(=O)(=O)c2ccc(OCc3ccc(Br)cc3)cc2)[C@H]1C(=O)NO	10 nM	100 nM	7700 nM	> 100 nM	1.4 nM	–
Cc1cnsc1COc1ccc(S(=O)(=O)N2C[C@H](O)CC(C)(C)[C@@H]2C(=O)NO)cc1	16 nM	–	4950 nM	–	–	55%
CCc1ccccc1COc1ccc(S(=O)(=O)N2C[C@H](O)CC(C)(C)[C@@H]2C(=O)NO)cc1	6.7 nM	1500 nM	1100 nM	67 nM	36 nM	–
Cc1ncccc1COc1ccc(S(=O)(=O)N2C[C@H](O)CC(C)(C)[C@@H]2C(=O)NO)cc1	6.7 nM	–	2000 nM	91 nM	–	–
Cc1ccccc1COc1ccc(S(=O)(=O)N2C[C@H](O)CC(C)(C)[C@@H]2C(=O)NO)cc1	7.3 nM	690 nM	4900 nM	38 nM	14 nM	–
CC1(C)C[C@@H](O)CN(S(=O)(=O)c2ccc(OCc3ccc(Cl)cc3Cl)cc2)[C@H]1C(=O)NO	19 nM	430 nM	31000 nM	2.1 nM	3 nM	–
Cc1cc(F)ccc1COc1ccc(S(=O)(=O)N2C[C@H](O)CC(C)(C)[C@@H]2C(=O)NO)cc1	5.2 nM	255 nM	5480 nM	2.7 nM	3.5 nM	–
Cc1ccc(COc2ccc(S(=O)(=O)N3C[C@H](O)CC(C)(C)[C@@H]3C(=O)NO)cc2)cc1	11 nM	198 nM	19200 nM	–	1.2 nM	19%
CC1(C)C[C@@H](O)CN(S(=O)(=O)c2ccc(OCc3ccnc4ccccc34)cc2)[C@H]1C(=O)NO	–	170 nM	950 nM	15 nM	7.8 nM	–
CC1(C)C[C@@H](O)CN(S(=O)(=O)c2ccc(OCc3nccc4ccccc34)cc2)[C@H]1C(=O)NO	10 nM	290 nM	2420 nM	> 100 nM	53 nM	–
Cc1nscc1COc1ccc(S(=O)(=O)N2C[C@H](O)CC(C)(C)[C@@H]2C(=O)NO)cc1	12 nM	–	5200 nM	–	–	76%
Cc1ccc(F)cc1COc1ccc(S(=O)(=O)N2C[C@H](O)CC(C)(C)[C@@H]2C(=O)NO)cc1	7.3 nM	790 nM	3450 nM	40 nM	6.5 nM	–
CC1(C)C[C@@H](O)CN(S(=O)(=O)c2ccc(OCc3ccncc3Cl)cc2)[C@H]1C(=O)NO	–	1100 nM	10200 nM	18 nM	19 nM	–
CC1(C)C[C@@H](O)CN(S(=O)(=O)c2ccc(OCc3ccc(F)cc3Cl)cc2)[C@H]1C(=O)NO	–	592 nM	10200 nM	–	0.5 nM	–
